{"source": "patent US5672710A", "about": "“Sulfides, sulfoxides and sulfones disubstituted with a tetrahydronaphthalenyl, chromanyl, thiochromanyl or tetrahydroquinolinyl and substituted phenyl or heteroaryl group, having retinoid-like biological activity” (priority 1995, dated 1997)", "key": {"RXRβ": {"molecular_target": "T1, RXRβ (Mus musculus, UniProt P28704)", "T1 construct": "expressed in transfected cells; host or cells: CV1", "T1 sequence (P28704 1-520)": "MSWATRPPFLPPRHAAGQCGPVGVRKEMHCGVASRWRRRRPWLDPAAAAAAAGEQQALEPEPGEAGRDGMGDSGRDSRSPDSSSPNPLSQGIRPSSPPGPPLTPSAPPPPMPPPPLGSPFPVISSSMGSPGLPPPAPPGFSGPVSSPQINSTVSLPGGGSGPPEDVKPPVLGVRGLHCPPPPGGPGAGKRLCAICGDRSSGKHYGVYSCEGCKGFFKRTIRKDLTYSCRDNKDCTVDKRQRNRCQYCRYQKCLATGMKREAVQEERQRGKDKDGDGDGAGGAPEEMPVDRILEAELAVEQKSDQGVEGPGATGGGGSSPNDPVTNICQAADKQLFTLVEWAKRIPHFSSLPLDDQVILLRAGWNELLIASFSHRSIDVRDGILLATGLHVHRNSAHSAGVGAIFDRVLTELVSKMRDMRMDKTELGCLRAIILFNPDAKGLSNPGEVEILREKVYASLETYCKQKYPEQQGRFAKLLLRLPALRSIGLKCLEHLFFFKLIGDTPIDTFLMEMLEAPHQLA", "experiment": "Holoreceptor transactivation assay, RXRβ", "assay_type": "cell-based", "conditions": "CV1 cells; for EC50: 36 hours; for Emax: CV-1, relative to all trans retinoic acid, read-out: Transactivation Assay Efficacy (% of RA activity), RXRβ", "text": "(§1) A holoreceptor transactivation assay and a ligand binding assay which measure the ability of the compounds of the invention to bind to the several retinoid receptor subtypes, respectively, are described in published PCT Application No. WO W093/11755 (particularly on pages 30-33 and 37-41) published on Jun. 24, 1993, the specification of which is also incorporated herein by reference. A description of the holoreceptor transactivation assay is also provided below.\n(§2) CV1 cells (5,000 cells/well) were transfected with an RAR reporter plasmid MTV-TREp-LUC (50 ng) along with one of the […] expression vectors (10 ng) in an automated 96-well format by the calcium phosphate procedure of Heyman et al. Cell 68, 397-406. (8). For RXRα and RXR.GAMMA. transactivation assays, an RXR-responsive reporter plasmid CRBPII-tk-LUC (50 ng) along with the appropriate RXRexpression vectors (10 ng) was used substantially as described by Heyman et al. above, and Allegretto et al. J. Biol. Chem. 268, 26625-26633. For RXRβ transactivation assays, an RXR-responsive reporter plasmid CPRE-tk-LUC ([…]) along with RXRβ expression vector ([…]) was used as described in above. These reporters contain DRI elements from human CRBPII and certain DRI elements from promoter, respectively. (see Mangelsdorf et al. The Retinoids: Biology, Chemistry and Medicine, pp 319-349, Raven Press Ltd., New York and Heyman et al., cited above) (1, 8). A β-galactosidase (50 ng) expression vector was used as an internal control in the transfections to normalize for variations in transfection efficiency. The cells were transfected in triplicate for 6 hours, followed by incubation with retinoids for 36 hours, and the extracts were assayed for luciferase and β-galactosidase activities. The detailed experimental procedure for holoreceptor transactivations has been described in Heyman et al. above, and Allegretto et al. cited above. The results obtained in this assay in connection with examplary compounds in accordance with the present invention are expressed in EC50 numbers, as they are also in the chimeric receptor transactivation assay. The Heyman et al. Cell 68, 397-406, Allegretto et al. J. Biol. Chem. 268, 26625-26633, and Mangelsdorf et al. The Retinoids: Biology, Chemistry and Medicine, pp 319-349, Raven Press Ltd., New York, are expressly incorporated herein by reference. The results of ligand binding assay are expressed in Kd numbers. (See Cheng et al. Biochemical Pharmacology Vol. 22 pp 3099-3108, expressly incorporated herein by reference.)"}, "RXRγ": {"molecular_target": "T2, RXRγ (Mus musculus, UniProt P28705)", "T2 construct": "expressed in transfected cells; host or cells: CV1", "T2 sequence (P28705 1-463)": "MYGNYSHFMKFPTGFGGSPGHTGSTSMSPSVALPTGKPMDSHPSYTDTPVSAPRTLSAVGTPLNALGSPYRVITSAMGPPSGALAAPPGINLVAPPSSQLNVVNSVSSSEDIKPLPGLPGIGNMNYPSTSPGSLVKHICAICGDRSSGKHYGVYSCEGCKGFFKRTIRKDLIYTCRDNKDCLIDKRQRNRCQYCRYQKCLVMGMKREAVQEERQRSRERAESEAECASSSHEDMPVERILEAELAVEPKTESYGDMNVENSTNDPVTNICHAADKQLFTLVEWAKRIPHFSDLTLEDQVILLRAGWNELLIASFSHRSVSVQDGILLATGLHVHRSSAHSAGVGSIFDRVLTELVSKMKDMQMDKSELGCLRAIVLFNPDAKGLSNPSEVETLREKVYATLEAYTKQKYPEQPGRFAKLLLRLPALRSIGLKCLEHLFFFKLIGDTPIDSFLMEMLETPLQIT", "experiment": "Holoreceptor transactivation assay, RXRγ", "assay_type": "cell-based", "conditions": "CV1 cells; for EC50: 36 hours; for Emax: CV-1, relative to all trans retinoic acid, read-out: Transactivation Assay Efficacy (% of RA activity), RXRγ", "text": "as §1, §2"}}}
{"smiles": "Cc1cc2c(cc1Sc1ncc(C(=O)O)s1)C(C)(C)CCC2(C)C", "note": "[Compound 15, 2-(5,6,7,8-Tetrahydro-3,5,5,8,8-pentamethyl-2-naphthylthio)-5-thiazolecarboxylic acid]", "values": [{"measurement": "EC50", "setting": "RXRβ", "value": 1300, "unit": "nM"}, {"measurement": "Emax", "setting": "RXRβ", "value": 117, "unit": "%"}, {"measurement": "EC50", "setting": "RXRγ", "value": 1900, "unit": "nM"}, {"measurement": "Emax", "setting": "RXRγ", "value": 70, "unit": "%"}]}
{"smiles": "Cc1cc2c(cc1Sc1ccc(C(=O)O)cc1)C(C)(C)CCC2(C)C", "note": "[Compound 7, 4-(5,6,7,8-tetrahydro-3,5,5,8,8-pentamethyl-2-Daphthylthio)benzoic acid]", "values": [{"measurement": "EC50", "setting": "RXRβ", "value": 320, "unit": "nM"}, {"measurement": "Emax", "setting": "RXRβ", "value": 114, "unit": "%"}, {"measurement": "EC50", "setting": "RXRγ", "value": 230, "unit": "nM"}, {"measurement": "Emax", "setting": "RXRγ", "value": 67, "unit": "%"}]}
{"smiles": "CC1(C)CCC(C)(C)c2cc(Sc3ccc(C(=O)O)cc3)ccc21", "note": "[Compound 2]", "values": [{"measurement": "EC50", "setting": "RXRβ", "value": 1600, "unit": "nM"}, {"measurement": "Emax", "setting": "RXRβ", "value": 80, "unit": "%"}]}
{"smiles": "Cc1cc2c(cc1[S+]([O-])c1ccc(C(=O)O)cc1)C(C)(C)CCC2(C)C", "note": "(stereo not shown) [Compound 9, 4-(5,6,7,8-tetrahydro-3,5,5,8,8-pentamethyl-2-naphthylsulfoxy)benzoic acid]", "values": [{"measurement": "EC50", "setting": "RXRβ", "value": 3000, "unit": "nM"}, {"measurement": "Emax", "setting": "RXRβ", "value": 29, "unit": "%"}, {"measurement": "EC50", "setting": "RXRγ", "value": 1600, "unit": "nM"}, {"measurement": "Emax", "setting": "RXRγ", "value": 28, "unit": "%"}]}
{"smiles": "Cc1cc2c(cc1Sc1ccc(C(=O)O)cn1)C(C)(C)CCC2(C)C", "note": "[Compound 13]", "values": [{"measurement": "EC50", "setting": "RXRγ", "value": 42, "unit": "nM"}, {"measurement": "Emax", "setting": "RXRγ", "value": 85, "unit": "%"}]}
{"smiles": "CC1(C)CCC(C)(C)c2cc(S(=O)(=O)c3ccc(C(=O)O)cc3)ccc21", "note": "[Compound 5, 4-(5,6,7,8-tetrahydro-5,5,8,8-tetramethyl-2-naphthylsulfonyl)benzoic acid]", "values": [{"measurement": "Emax", "setting": "RXRβ", "value": 11, "unit": "%"}, {"measurement": "EC50", "setting": "RXRγ", "value": 2600, "unit": "nM"}, {"measurement": "Emax", "setting": "RXRγ", "value": 26, "unit": "%"}]}
